Measured values reported in patent publication US20090111997A1, “Method of Generating Amorphous Solid for Water-Insoluble Pharmaceuticals” (priority 2005, published 2009).

Protocol: The term “water insoluble pharmaceutical” means a pharmaceutical active ingredient that is insoluble or nearly insoluble in water with a dose number greater than 1. The dose number is defined as follows:
Dose number=theoretical dose in mg/water solubility×250 ml.
For example, if the theoretical dose of the drug is 20 mg per dose. […] Another example of a water insoluble pharmaceutical includes the compound of Formula I

Structure (SMILES): CC[C@H](C)C(=O)O[C@H]1C[C@@H](C)C=C2C=C[C@H](C)[C@H](CC[C@@H]3C[C@@H](O)CC(=O)O3)[C@H]21 [lovastatin]
- dose number (theoretical dose in mg/water solubility×250 ml): > 8
